# Data as given in ChEMBL document CHEMBL4138079, “New cycloartane type-triterpenoids from the areal parts of Caragana sukiensis and their biological activities” (Eur J Med Chem, 2017).
# Experiments:
# A549 = experiment: Cytotoxicity against human A549 cells assessed as reduction in cell viability after 48 hrs by MTT assay; type: functional, cell-based; details: A549, 48 h
# Spodoptera litura [1] = experiment: Antifeedant activity in Spodoptera litura third-instar larvae assessed as increase in feeding deterrence after 24 hrs by leaf disk method; type: functional
# Spodoptera litura [2] = experiment: Antifeedant activity in Spodoptera litura third-instar larvae assessed as increase in feeding deterrence by measuring antifeedant index at 5 ug/cm2 after 24 hrs by leaf disk method; type: functional
# DU-145 = experiment: Cytotoxicity against human DU145 cells assessed as reduction in cell viability after 48 hrs by MTT assay; type: functional, cell-based; details: DU-145, 48 h
# MCF7 = experiment: Cytotoxicity against human MCF7 cells assessed as reduction in cell viability after 48 hrs by MTT assay; type: functional, cell-based; details: MCF7, 48 h
# Spodoptera litura [3] = experiment: Insecticidal activity in Spodoptera litura third-instar larvae assessed as larval mortality at 5 ug/cm2 after 24 hrs by leaf disk method relative to control; type: functional; details: foliar
# Spodoptera litura [4] = experiment: Antifeedant activity in Spodoptera litura assessed as pupal mortality after 24 hrs by leaf disk method (reference value: 0%); type: functional
# Spodoptera litura [5] = experiment: Antifeedant activity in Spodoptera litura assessed as pupal weight after 24 hrs by leaf disk method (reference value: 0.245 +/- 0.02 g); type: functional
# Spodoptera litura [6] = experiment: Antifeedant activity in Spodoptera litura third-instar larvae assessed as larval duration time after 24 hrs by leaf disk method (reference value: 10.1 +/- 0.1 day); type: functional
# HeLa = experiment: Cytotoxicity against human HeLa cells assessed as reduction in cell viability after 48 hrs by MTT assay; type: functional, cell-based
# HEK293 = experiment: Cytotoxicity against human HEK293 cells assessed as reduction in cell viability after 48 hrs by MTT assay; type: cell-based; details: HEK293, 48 h
# Spodoptera litura [7] = experiment: Toxicity in Spodoptera litura third-instar larvae assessed as increase in larval mortality after 24 hrs by leaf disk method; type: organism-based; details: in vivo
# Spodoptera litura [8] = experiment: Antifeedant activity in Spodoptera litura third-instar larvae assessed as increase in feeding deterrence by measuring antifeedant index at 2.8 ug/cm2 after 24 hrs by leaf disk method; type: functional
# Spodoptera litura [9] = experiment: Insecticidal activity in Spodoptera litura third-instar larvae assessed as increase in larval mortality at 2.8 ug/cm2 after 24 hrs by leaf disk method relative to control; type: functional; details: foliar
Structure (SMILES),IC50 (A549) [µM],ED50 (Spodoptera litura [1]) [microg/cm2],Activity_index (Spodoptera litura [2]),IC50 (DU-145) [µM],IC50 (MCF7) [µM],mortality at 5 µg/cm2 (Spodoptera litura [3]) [%],mortality (Spodoptera litura [4]) [%],Activity (Spodoptera litura [5]) [g],Time (Spodoptera litura [6]) [days],IC50 (HeLa) [µM],IC50 (HEK293) [µM],LD50 (Spodoptera litura [7]) [microg/cm2],Activity_index (Spodoptera litura [8]),mortality at 2.8 µg/cm2 (Spodoptera litura [9]) [%]
C[C@@H]1C[C@H]([C@H](O)C(C)(C)O)O[C@H]2O[C@H](O)[C@@]3(C)[C@@H]4CC[C@H]5C(C)(C)[C@@H](O[C@@H]6OC[C@@H](O)[C@H](O)[C@H]6O)CC[C@@]56C[C@@]46CC[C@]3(C)[C@H]21,37.5,3.61,59.3,59.2,43.2,19.4,92.4,0.264,11.8,57,79.2,–,–,–
CC(C)(O)[C@@H]1CC[C@](C)([C@H]2[C@@H](O)C[C@@]3(C)[C@@H]4C[C@H](O)[C@H]5C(C)(C)[C@@H](O[C@@H]6OC[C@@H](O)[C@H](O)[C@H]6O)CC[C@@]56C[C@@]46CC[C@]23C)O1,29,15.05,70.1,19.6,31.2,18.2,90.9,0.212,13.4,17.4,99.4,–,–,–
COc1cccc2c1C(=O)c1c(O)c3c(c(O)c1C2=O)C[C@@](O)(C(=O)CO)C[C@@H]3O[C@H]1C[C@H](N)[C@H](O)[C@H](C)O1 [DOXORUBICIN],1.95,–,–,1.62,–,–,–,–,–,1.09,–,–,–,–
CC(=O)O[C@H]1[C@H](O[C@H]2CC[C@]34C[C@]35CC[C@]3(C)[C@@H]([C@@]6(C)CC[C@@H](C(C)(C)O)O6)[C@@H](O)C[C@@]3(C)[C@@H]5C[C@H](O)[C@H]4C2(C)C)OC[C@@H](O)[C@@H]1O,2.24,1.689,64.1,11.3,2.93,19.3,90.1,0.219,13.4,9.71,121,–,–,–
CC1(C)C[C@@H](O)[C@]2(C)CC[C@]3(C)C(=CC[C@@H]4[C@@]5(C)CC[C@H](O)[C@](C)(CO)[C@@H]5CC[C@]43C)[C@@H]2C1 [SOYASAPOGENOL B],2.1,5.22,68.1,10.9,2.33,11.6,96.7,0.251,12.1,3.49,124,–,–,–
CC1(C)C[C@@H](O)[C@]2(C)CC[C@]3(C)C(=CC[C@@H]4[C@@]5(C)CCC(=O)[C@](C)(CO)[C@@H]5CC[C@]43C)[C@@H]2C1,21.2,–,21.8,26,28.7,0,11.2,0.249,11.1,18.6,95.6,–,–,–
C[C@@H]1C[C@H]([C@H](O)C(C)(C)O)O[C@H]2O[C@H](O)[C@@]3(C)[C@@H]4CC[C@H]5C(C)(C)[C@@H](O)CC[C@@]56C[C@@]46CC[C@]3(C)[C@H]21,51.1,0.59,91.8,62.1,58.2,86.7,–,–,–,63.8,123,0.84,–,–
C[C@@H]1C[C@H]([C@H](O)C(C)(C)O)O[C@H]2OC(=O)[C@@]3(C)[C@@H]4CC[C@H]5C(C)(C)C(=O)CC[C@@]56C[C@@]46CC[C@]3(C)[C@H]21,16.3,0.67,93.6,22.4,24.8,94.6,–,–,–,17.8,79.3,0.91,–,–
CC1(C)CC[C@]2(C)CC[C@]3(C)C(=CC[C@@H]4[C@@]5(C)CC[C@H](O)C(C)(C)[C@@H]5CC[C@]43C)[C@@H]2C1 [beta-AMYRIN],23.6,28.69,59.4,27.9,35.3,10.9,89.9,0.232,11.5,27.9,94.4,–,–,–
C[C@@H]1C[C@H]([C@H](O)C(C)(C)O)O[C@H]2O[C@H](O)[C@@]3(C)[C@@H]4CC[C@H]5C(C)(C)C(=O)CC[C@@]56C[C@@]46CC[C@]3(C)[C@H]21,36.7,1.195,56.4,53.7,38.9,11.5,88.5,0.221,12.6,55.3,167,–,–,–
C[C@@H]1C[C@H]([C@H](O)C(C)(C)O)O[C@H]2OC(=O)[C@@]3(C)[C@@H]4CC[C@H]5C(C)(C)C(=O)C=C[C@@]56C[C@@]46CC[C@]3(C)[C@H]21,29.4,12.239,61.2,36.1,27.2,11.3,91.3,0.226,11.9,63.3,158,–,–,–
C/C=C(\C)C(=O)O[C@H]1C[C@@H](OC(C)=O)[C@@]2(C(=O)OC)CO[C@H]3[C@@H](O)[C@@](C)([C@]45O[C@@]4(C)[C@H]4C[C@@H]5O[C@@H]5OC=C[C@@]54O)[C@H]4[C@]1(CO[C@]4(O)C(=O)OC)[C@@H]32 [AZADIRACTIN],–,1.8,–,–,–,–,–,–,–,–,–,0.84,99.1,100
